Results published in patent US20070270392A1, “Use of a Cyclopentenone Prostaglandin for Delaying the Onset and/or Preventing the Continuation of Labour” (Imperial College Innovations Limited, priority 2003, published 2007).

How the values were obtained:
Type in all cases: cell-based, human
NF-κB [1] = assay: EMSA of NF-κB DNA binding in nuclear extracts of treated myometrial cells; settings: for IL-1β-induced NF-κB DNA binding: myometrial cells, treated 2 h, IL-1β stimulation 15 min
Method: Electro-mobility shift assay (EMSA) analysis of NF-κB DNA binding in nuclear protein extracts from (A) myometrial cells, (B) L+amnion cells, and (C) L− amnion cells treated with 15dPGJ2 or vehicle for 2 h+/−IL-1b stimulation (15 min). Consensus kB probe used to assess NF-κB DNA binding, and consensus Oct-1 probe used as control.
Consensus κB probe used to assess NF-κB DNA binding, consensus Oct-1 probe used as control. For supershift analysis, extracts were preincubated with antibodies against p50 or p65.
EMSA analysis of nuclear protein extracts from myometrial cells treated with (A) WY-14643 or vehicle, and (B) high doses of troglitazone, WY-14643 or vehicle for 2 h followed by IL-1b stimulation (15 min). Consensus κB probe used to assess NFκB DNA binding, consensus Oct-1 and Sp-1 probes used as controls.
EMSA analysis of nuclear protein extracts from (A) myometrial cells, and (B) amnion cells treated with PGA1 or vehicle for 2 h followed by IL-1b stimulation (15 min). Consensus κB probe used to assess NFκB DNA binding, consensus Oct-1 probe used as control. For supershift analysis, extracts were preincubated with antibodies against p50 or p65.
Analysis of nuclear protein extracts from myometrial cells treated with PGE2 or vehicle for 2 h+/−TNFα or IL-1b stimulation (15 min). (A) EMSA using consensus κB probe. (B) Western immunoblot probing for nuclear p65.
EMSA analysis of nuclear protein extracts from (A) L− amnion cells and (B) myometrial cells treated with vehicle, PGE2 or IL-1β. Consensus κB probe used.
(§1) Myometrial tissue was collected at term from the upper margin of uterine incision at the time of lower segment caesarean section either prior to the onset of labour (L−) or […] (L+). L+ samples were collected by Dr Mark Johnson and Dr S Soorrana at Chelsea & Westminster Hospital. Myometrial tissue was dissected, rinsed in PBS, and digested in serum-free DMEM containing 15 mg/ml collagenase 1A (Sigma), 15 mg/ml collagenase X, and 50 mg/ml bovine serum albumin for 45 min at 37° C. The cell suspension was filtered through a cell strainer, centrifuged at 400 g for 5 min, and the pellet re-suspended and plated out in DMEM, 10% FCS (Helena BioScience), 1% L-glutamine, 1% penicillin-streptomycin. Cells were used between passage numbers 1-4.
Nuclear and cytosolic protein extracts were obtained from cultured amnion cells as described by Schreiber et al (1989). For nuclear/cytosolic fractionation, confluent cell monolayers were scraped and lysed using a buffer containing 10 mM HEPES, 10 mM KCl, 0.1 mM EDTA, 0.1 mM EGTA, 2 mM DTT, 1% (v/v) NP-40 and complete protease inhibitor tablets (CPIs, Roche), diluted to manufacturer's instructions. Cell lysates were incubated on ice for 10 min and NP-40 added to a final concentration of 1% (v/v). Lysates were vortexed for 10 secs and centrifuged for 30 secs at 4° C., 12000 g. The supernatants were retained as the cytosolic protein extracts. The pellets were resuspended in buffer containing 10 mM HEPES, 10 mM KCl, 0.1 mM EDTA, 0.1 mM EGTA, 2 mM DTT, 400 mM NaCl, 1% NP-40 (v/v) and CPIs. Samples were shaken vigorously for 15 min in an ice bath. The nuclear protein extracts were obtained in the supernatant following a 5 min centrifugation at 4° C., 12000 g.
Sense and antisense strands (175 nmole/ml each) were incubated in annealing buffer (10 mM Tris-HCl pH7.5, 100 mM NaCl, 1 mM EDTA) for 10 min at 65° C., and allowed to cool at room temperature for 2 h. 3.5 pmole double-stranded oligonucleotides were end-labelled with 0.37 MBq ^32P(γATP) by incubating for 30 min at 37° C. with T4 polynucleotide kinase. Labelled oligonucleotides were recovered by centrifugation at […] for 2 min through MicroSpin G-25 or G-50 sephadex columns (Amersham Biosciences). […]

NF-κB [2] = assay: NF-κB-dependent luciferase reporter (κB.BG.Luc) in amnion cells; settings: L− and L+ amnion cells, treated 2 h, IL-1β 1 ng/ml 6 h
Method: . Values are normalised for b-gal reporter activity.
Placentae were obtained from patients at term either at elective Caesarean section prior to labour (L−) or following spontaneous labour onset and vaginal delivery (L+). Amnion cells were prepared as described in Bennett et al., (1989). Briefly, the amnion was separated from the placenta, washed 3× in PBS, cut into strips, and incubated in 0.51 mM EDTA in PBS for 15 min. The strips were washed in PBS 2× and digested with 2.5 mg/ml dispase in serum-free DMEM for 35 min at 37° C. The amnion was then shaken vigorously in DMEM, 10% FCS to dissociate the cells, the remaining strips discarded, and the cell suspension pelleted at 175 g for 10 min and cultured in DMEM, 10% FCS (Sigma), 1% L-glutamine, 1% penicillin-streptomycin.
pGL3.6 κB.BG.luc was the reporter construct used to assess NF-κB-mediated transcription, while the mutant pGL3.6 κBmut.luc and empty pGL3.BG.luc were used as controls (Schwarzer et al., 1998).
pGL3.6 κB.BG.luc: a NF-κB-dependent reporter construct with 6 copies of the NF-κB binding site. It contains two tandem repeats of the sequence 5′-GGG GAC TTT C CC TGGGGACTTTCCCTGGGGACTTTCCC-3′, which contains three copies of the decameric NF-κB binding site (underlined) upstream of a minimal β-globin promoter driving a luciferase gene. […]

NF-κB [3] = assay: NF-κB-dependent luciferase reporter (κB.BG.Luc) in myometrial cells; settings: for IL-1-induced NF-κB transcriptional activity: treated 2 h, IL-1β 1 ng/ml 6 h
Method: Myometrial cells were transiently transfected with the NFκB-dependent reporter construct κB.BG.Luc, treated with 15dPGJ2 or vehicle for 2 h, +/−IL-1β(1 ng/ml) for 6 h. […] Values are normalised for b-gal reporter activity. (NS=nonstimulated).
Myometrial cells were transfected with […] κB.BG.Luc reporter and 200 ng PPAR-γ expression vector and treated with 15d-PGJ2 for 2 h followed by IL-1β (1 ng/ml) for 6 h. Values are normalised for β-galactosidase reporter activity. (NS=nonstimulated).
as §1
pGL3.6 κB.BG.luc: a NF-κB-dependent reporter construct with 6 copies of the NF-κB binding site.
Cells were co-transfected with the renilla vector pRL-CMV or a β-galactosidase vector pCH110 as internal controls for transfection efficiencies.

| SMILES | Protein binding to a consensus Oct-1 or Sp-1 probe (control) (NF-κB [1]; control for NF-κB-specific effect) | IL-1β-induced NF-κB DNA binding (NF-κB [1]) | IL-1-induced NF-κB transcriptional activity (NF-κB [2]) | Effect of PPARγ overexpression on 15d-PGJ2 inhibition of NF-κB transcriptional activity (NF-κB [3]; 200 ng PPAR-γ expression vector) | IL-1-induced NF-κB transcriptional activity (NF-κB [3]) |
| --- | --- | --- | --- | --- | --- |
| CCCCCC=CC=C1C(=O)C=C[C@@H]1CC=CCCCC(=O)O [15d-PGJ2, 15-deoxy-Δ^12,14prostaglandin J2] | unaffected | inhibited | inhibited | did not promote | inhibited |
| CCCCC[C@H](O)/C=C/[C@H]1C=CC(=O)[C@@H]1CCCCCCC(=O)O [PGA1, prostaglandin A1] |  | able to inhibit | inhibited |  | reduced to basal levels |
